From ChEMBL document CHEMBL1201862, “PubChem BioAssay data set” (2004)
Activity calls are given as the source filed them.

Key:
[1] = target: Albumin (Bos taurus, UniProt P02769); assay: Counterscreen for inhibitors of T-cell receptor (TCR)-CD3 interaction: Fluorescence-based biochemical high throughput dose response assay to identify inhibitors of T-cell receptor (TCR)-CD3 interaction using a TAMRA-labeled BSA probe.; format: functional
[2] = target: T1, Oxysterols receptor LXR-beta (Homo sapiens, UniProt P55055); format: functional, cell-based;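 further: agonist activity at LXR measured by a cell-based luminescence readout across a dose range, run as a counterscreen for daf-12 agonists; HEK293 cells with Gal4-LXR fusion and GAL4-driven luciferase reporter; potency for activation of Gal4-LXR reporter so compounds are agonists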
T1 sequence (P55055 whole entry): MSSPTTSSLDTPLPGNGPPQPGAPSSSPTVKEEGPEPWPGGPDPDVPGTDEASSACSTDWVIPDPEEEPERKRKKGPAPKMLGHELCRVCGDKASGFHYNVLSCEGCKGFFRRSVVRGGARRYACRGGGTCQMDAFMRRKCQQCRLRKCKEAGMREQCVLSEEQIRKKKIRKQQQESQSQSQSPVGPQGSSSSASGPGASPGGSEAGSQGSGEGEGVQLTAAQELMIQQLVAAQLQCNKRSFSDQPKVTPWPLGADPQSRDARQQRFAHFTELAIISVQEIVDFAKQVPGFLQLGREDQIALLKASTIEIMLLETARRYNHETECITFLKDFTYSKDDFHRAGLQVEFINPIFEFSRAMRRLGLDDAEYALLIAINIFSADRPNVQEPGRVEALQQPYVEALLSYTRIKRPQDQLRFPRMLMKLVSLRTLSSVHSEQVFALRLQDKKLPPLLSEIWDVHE

[3] = target: T2, Protein skinhead-1 (Caenorhabditis elegans, UniProt P34707); format: functional
T2 sequence (P34707 whole entry): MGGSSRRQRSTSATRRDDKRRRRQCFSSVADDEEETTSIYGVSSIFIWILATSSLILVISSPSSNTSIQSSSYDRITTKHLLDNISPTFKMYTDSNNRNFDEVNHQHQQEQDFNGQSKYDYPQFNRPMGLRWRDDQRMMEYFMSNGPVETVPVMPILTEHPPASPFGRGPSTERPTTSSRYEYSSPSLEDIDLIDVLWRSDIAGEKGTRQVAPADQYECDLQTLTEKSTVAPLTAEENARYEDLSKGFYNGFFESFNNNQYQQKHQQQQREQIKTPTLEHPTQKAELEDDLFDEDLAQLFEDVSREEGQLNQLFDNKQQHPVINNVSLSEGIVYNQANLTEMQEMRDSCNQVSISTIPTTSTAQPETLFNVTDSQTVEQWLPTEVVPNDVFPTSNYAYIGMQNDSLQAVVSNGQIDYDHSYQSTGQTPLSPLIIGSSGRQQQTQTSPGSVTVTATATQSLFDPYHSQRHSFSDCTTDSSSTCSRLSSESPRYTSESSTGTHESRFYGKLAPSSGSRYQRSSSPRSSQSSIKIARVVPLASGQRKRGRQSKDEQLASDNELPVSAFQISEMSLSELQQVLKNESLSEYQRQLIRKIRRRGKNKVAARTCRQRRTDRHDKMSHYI

[4] = test system: HEK293; assay: inhibitors of LMP1-driven NF-kB reporter, dose response, cell-based, HEK293, luciferase, cherry-pick (AID 588343); format: functional; settings: Homo sapiens
[5] = test system: Vero; assay: cells; format: functional; settings: Chlorocebus sabaeus
[6] = target: T3, COUP transcription factor 2 (Homo sapiens, UniProt P24468); assay: Luminescence-based cell-based high throughput dose response assay to identify inhibitors of COUP-TFII (NR2F2).; format: functional;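 further: HEK293 cells transiently cotransfected with COUP-TFII expression vector and reporter; luciferase reporter luminescence driven by COUP-TFII from the pX2-168 reporter plasmid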
T3 sequence (P24468 whole entry): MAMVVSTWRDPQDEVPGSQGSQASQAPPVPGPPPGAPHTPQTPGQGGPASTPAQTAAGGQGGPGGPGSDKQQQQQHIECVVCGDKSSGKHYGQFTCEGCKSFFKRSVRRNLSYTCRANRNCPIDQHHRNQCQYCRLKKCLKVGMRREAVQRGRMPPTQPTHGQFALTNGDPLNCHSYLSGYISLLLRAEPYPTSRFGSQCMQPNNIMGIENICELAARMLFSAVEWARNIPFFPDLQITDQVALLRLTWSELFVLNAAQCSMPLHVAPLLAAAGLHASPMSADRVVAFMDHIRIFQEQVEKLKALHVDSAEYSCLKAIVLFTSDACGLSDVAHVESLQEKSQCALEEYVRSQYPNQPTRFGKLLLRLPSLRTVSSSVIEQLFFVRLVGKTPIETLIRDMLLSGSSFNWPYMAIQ

[7] = test system: P388; assay: cells; format: functional; settings: Mus musculus
[8] = test system: P388/ADR; assay: cells; format: functional; settings: Mus musculus
[9] = test system: SN12K1; assay: cells; format: functional; settings: Homo sapiens, SN12K1
[10] = miR-122 activators in hepatoma reporter cells, dose response, cell-based, Huh7 psiCHECK-miR122, Renilla luciferase, cherry-picked (AID 651956); format: functional;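 further: huh7 hepatoma cells stably carrying a psiCHECK-2 miR-122 sensor plasmid; renilla luciferase signal reporting endogenous miR-122 activity after 48 h compound exposure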
[11] = intracellular Trypanosoma cruzi inhibitors in host cells – cell-based, plate reader, cherry-pick samples, set 3, dose response (AID 651818); format: functional;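 further: compounds incubated with infected cells for about four days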
[12] = target: Paired box protein Pax-8 (Homo sapiens, UniProt Q06710); assay: inhibitors of PAX8-driven TPO luciferase reporter, dose response, RMG-I cells, cherry-pick (AID 687027); format: functional, cell-based;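 further: luciferase reporter driven by Pax8 target thyroperoxidase promoter measured by SteadyGlo luminescence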
Sequence of Paired box protein Pax-8 (Q06710 whole entry): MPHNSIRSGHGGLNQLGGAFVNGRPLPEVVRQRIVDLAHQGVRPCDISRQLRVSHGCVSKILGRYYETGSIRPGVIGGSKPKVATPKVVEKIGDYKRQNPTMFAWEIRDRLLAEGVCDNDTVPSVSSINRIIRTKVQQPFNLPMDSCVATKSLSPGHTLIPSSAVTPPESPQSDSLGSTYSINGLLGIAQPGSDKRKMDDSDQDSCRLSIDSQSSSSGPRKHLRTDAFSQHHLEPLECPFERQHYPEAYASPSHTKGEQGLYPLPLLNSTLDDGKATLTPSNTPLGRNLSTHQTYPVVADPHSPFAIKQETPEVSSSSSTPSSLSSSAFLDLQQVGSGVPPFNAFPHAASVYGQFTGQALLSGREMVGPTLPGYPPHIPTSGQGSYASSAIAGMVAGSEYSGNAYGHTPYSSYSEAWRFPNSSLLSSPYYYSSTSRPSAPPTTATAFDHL

[13] = cytotoxicity in OVCAR8 ovarian cancer cells, dose response, PAX8 project, cell-based, plate reader, dry powder samples (AID 743197); format: functional; settings: OVCAR-8
[14] = test system: Streptococcus sp. 'group A'; assay: growth inhibition of control SK(-) GAS strain, dose response, counter-screen for streptokinase expression inhibitor project, luminescence, kanamycin, BacTiterGlo, confirmation (AID 1900); format: functional, organism-based
[15] = target: T4, Fatty acid synthase (Homo sapiens, UniProt P49327); assay: FAS thioesterase domain inhibitors, dose response, biochemical, endpoint fluorescence intensity, uHTS hits (AID 624327); format: functional;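 further: fluorescence from hydrolysis of an O-methyl fluorescein acyl ester substrate by the enzyme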
T4 sequence (P49327 whole entry, the tested form may be a part): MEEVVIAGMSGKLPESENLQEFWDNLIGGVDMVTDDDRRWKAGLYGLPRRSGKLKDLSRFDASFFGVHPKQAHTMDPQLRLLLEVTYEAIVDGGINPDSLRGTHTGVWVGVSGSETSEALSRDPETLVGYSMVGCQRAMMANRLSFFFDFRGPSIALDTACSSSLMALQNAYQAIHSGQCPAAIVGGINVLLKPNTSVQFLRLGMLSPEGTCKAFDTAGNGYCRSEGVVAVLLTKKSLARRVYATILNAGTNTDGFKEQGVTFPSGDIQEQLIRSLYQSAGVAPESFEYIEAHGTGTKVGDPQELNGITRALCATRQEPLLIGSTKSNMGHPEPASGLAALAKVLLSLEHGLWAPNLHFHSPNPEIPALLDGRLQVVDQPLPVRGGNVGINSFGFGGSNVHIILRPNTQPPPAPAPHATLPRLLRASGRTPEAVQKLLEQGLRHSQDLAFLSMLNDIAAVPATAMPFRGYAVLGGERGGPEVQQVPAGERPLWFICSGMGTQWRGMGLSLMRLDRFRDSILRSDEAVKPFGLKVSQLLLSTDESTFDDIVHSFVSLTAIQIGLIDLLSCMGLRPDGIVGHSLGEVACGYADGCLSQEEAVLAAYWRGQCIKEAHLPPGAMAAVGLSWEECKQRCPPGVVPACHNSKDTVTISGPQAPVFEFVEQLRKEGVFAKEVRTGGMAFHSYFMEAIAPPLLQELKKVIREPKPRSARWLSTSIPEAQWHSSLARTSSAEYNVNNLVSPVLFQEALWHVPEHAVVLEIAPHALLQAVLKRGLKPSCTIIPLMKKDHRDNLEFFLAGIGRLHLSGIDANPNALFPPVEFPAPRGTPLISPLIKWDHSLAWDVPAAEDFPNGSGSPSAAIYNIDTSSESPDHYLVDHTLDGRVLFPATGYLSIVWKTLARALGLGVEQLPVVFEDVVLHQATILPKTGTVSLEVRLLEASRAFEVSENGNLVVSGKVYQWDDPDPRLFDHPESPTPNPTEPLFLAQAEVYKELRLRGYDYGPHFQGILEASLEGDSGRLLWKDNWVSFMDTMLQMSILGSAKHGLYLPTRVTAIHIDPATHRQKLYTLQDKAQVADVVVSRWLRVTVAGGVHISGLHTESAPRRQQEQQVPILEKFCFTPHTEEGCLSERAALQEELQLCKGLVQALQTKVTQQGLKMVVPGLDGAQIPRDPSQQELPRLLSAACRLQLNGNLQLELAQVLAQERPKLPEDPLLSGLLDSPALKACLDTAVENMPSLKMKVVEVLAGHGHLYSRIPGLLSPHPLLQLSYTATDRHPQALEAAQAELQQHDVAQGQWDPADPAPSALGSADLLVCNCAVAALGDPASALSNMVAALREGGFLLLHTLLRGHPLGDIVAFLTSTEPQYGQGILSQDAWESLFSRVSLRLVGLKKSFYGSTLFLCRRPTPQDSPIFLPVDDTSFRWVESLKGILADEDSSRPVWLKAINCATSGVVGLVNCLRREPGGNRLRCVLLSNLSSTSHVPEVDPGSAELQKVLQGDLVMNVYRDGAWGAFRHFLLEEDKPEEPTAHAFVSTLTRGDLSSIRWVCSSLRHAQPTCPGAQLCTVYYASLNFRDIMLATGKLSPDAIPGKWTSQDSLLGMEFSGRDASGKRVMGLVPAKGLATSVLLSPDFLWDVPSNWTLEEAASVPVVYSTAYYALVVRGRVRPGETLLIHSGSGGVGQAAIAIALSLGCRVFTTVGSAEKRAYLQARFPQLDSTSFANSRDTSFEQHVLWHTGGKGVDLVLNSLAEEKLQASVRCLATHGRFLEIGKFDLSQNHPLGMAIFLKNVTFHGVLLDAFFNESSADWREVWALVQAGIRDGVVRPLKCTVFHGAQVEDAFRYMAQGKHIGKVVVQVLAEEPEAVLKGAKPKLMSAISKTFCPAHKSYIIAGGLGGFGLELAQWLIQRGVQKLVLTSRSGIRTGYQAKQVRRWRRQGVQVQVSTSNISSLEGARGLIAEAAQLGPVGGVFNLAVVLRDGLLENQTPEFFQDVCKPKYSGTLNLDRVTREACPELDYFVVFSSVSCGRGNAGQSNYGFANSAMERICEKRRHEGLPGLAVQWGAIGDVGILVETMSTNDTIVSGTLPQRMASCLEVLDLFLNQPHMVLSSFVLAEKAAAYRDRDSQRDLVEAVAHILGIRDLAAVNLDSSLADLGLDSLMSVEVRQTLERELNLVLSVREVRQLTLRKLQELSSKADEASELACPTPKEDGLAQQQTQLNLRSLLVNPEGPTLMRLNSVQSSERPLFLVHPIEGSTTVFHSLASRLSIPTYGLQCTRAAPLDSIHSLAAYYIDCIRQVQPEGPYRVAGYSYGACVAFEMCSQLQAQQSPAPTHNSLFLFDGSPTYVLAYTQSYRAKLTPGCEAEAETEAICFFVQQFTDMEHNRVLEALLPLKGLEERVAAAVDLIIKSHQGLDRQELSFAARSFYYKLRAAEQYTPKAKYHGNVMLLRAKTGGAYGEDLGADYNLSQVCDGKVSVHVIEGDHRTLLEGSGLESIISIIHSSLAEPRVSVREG

[16] = target: T4, Fatty acid synthase; assay: FAS thioesterase domain inhibitors, dose response, biochemical, kinetic fluorescence intensity (AID 624326); format: functional;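 further: rate of fluorescence rise from hydrolysis of a fluorogenic O-methyl fluorescein ester substrate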
[17] = NIH-3T3 fibroblast cytotoxicity, dose response, cytotoxicity control, cell-based, fluorescence, Alamar Blue, secondary assay (AID 2327); format: functional;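 further: NIH-3T3 mouse fibroblasts cultured with fluconazole at 8 µg/mL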
[18] = C. albicans growth with fluconazole, confirmation, fluorescence, retest (AID 2467); format: functional, cell-based
[19] = test system: Streptococcus; assay: Group A Streptococcus viability loss, dose response, counter-screen for streptokinase expression inhibitor project, luminescence, BacTiterGlo (AID 1915); format: functional, organism-based;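 further: potency for reduction of bacterial viability or growth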
[20] = target: T5, Protein RecA (Mycobacterium tuberculosis, UniProt P9WHJ3); assay: Fluorescence Cell-Free Homogeneous Dose Retest to Identify Inhibitors of RecA-Intein Splicing Activity. [Related pubchem assays (depositor defined):AID2097, AID2223, AID489010, AID492950]; format: functional
T5 sequence (P9WHJ3 whole entry): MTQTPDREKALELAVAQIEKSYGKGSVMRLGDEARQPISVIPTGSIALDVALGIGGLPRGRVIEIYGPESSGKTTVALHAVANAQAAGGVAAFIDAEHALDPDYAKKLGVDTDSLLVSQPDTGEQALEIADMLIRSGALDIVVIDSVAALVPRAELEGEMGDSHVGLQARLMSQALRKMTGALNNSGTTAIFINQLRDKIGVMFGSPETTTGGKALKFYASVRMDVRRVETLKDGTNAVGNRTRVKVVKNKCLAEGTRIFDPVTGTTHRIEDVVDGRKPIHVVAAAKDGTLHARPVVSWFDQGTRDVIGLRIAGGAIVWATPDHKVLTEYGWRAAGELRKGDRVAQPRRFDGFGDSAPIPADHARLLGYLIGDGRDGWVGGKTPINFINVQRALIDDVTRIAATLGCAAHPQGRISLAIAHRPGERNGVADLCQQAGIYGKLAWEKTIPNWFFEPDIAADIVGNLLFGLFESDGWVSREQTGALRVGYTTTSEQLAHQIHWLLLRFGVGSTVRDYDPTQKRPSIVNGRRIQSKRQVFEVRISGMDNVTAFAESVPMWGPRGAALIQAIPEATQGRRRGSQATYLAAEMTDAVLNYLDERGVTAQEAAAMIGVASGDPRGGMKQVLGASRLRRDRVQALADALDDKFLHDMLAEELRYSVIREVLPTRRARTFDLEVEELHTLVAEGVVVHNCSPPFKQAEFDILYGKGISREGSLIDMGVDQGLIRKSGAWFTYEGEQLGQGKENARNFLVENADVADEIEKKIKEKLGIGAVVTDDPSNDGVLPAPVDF

[21] = target: T6, Replicative DNA helicase DnaB (Mycobacterium tuberculosis, UniProt P9WMR3); assay: DnaB intein splicing inhibitors, dose response, biochemical, cell-free fluorescence (AID 449749); format: functional
T6 sequence (P9WMR3 whole entry): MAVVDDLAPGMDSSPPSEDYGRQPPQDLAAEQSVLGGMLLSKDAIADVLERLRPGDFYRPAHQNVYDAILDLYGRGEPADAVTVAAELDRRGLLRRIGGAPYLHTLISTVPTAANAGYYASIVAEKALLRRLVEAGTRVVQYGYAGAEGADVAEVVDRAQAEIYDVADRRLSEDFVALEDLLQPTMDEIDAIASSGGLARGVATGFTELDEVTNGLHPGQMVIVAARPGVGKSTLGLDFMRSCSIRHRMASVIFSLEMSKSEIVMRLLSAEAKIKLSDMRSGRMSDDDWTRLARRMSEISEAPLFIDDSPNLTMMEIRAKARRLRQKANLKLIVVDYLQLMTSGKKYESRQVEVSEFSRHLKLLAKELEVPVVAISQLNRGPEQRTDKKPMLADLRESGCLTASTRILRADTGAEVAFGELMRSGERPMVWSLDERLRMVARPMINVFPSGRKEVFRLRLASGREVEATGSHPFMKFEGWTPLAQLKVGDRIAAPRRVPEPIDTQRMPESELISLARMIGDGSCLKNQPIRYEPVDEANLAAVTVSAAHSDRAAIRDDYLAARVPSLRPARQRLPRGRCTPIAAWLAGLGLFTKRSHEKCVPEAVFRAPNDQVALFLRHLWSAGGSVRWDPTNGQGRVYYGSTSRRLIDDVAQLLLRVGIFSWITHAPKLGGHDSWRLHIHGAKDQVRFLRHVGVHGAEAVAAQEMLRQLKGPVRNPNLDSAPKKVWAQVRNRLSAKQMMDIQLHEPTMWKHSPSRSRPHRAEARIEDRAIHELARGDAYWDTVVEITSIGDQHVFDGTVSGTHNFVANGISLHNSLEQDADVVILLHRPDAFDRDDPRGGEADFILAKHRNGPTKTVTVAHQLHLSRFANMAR

[22] = target: T7, Tyrosyl-DNA phosphodiesterase 2 (Homo sapiens, UniProt O95551); assay: human TDP2 enzyme inhibitors, dose response, biochemical, epi absorbance, IC50 (AID 743297)
T7 sequence (O95551 whole entry): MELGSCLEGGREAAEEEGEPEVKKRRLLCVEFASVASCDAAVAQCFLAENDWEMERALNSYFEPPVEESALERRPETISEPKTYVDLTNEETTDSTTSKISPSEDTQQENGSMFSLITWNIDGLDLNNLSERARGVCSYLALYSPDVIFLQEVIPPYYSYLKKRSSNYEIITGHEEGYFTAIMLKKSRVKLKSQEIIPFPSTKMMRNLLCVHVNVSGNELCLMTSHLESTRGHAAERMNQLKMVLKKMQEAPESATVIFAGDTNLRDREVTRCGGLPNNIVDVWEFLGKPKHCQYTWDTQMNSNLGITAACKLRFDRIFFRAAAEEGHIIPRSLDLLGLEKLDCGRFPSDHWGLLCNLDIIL

[23] = P. falciparum Dd2 growth inhibitors, dose response, SYBR Green, cherry-picked samples (AID 1159567); format: functional, cell-based

Sequence of Albumin (P02769 whole entry, the tested form may be a part): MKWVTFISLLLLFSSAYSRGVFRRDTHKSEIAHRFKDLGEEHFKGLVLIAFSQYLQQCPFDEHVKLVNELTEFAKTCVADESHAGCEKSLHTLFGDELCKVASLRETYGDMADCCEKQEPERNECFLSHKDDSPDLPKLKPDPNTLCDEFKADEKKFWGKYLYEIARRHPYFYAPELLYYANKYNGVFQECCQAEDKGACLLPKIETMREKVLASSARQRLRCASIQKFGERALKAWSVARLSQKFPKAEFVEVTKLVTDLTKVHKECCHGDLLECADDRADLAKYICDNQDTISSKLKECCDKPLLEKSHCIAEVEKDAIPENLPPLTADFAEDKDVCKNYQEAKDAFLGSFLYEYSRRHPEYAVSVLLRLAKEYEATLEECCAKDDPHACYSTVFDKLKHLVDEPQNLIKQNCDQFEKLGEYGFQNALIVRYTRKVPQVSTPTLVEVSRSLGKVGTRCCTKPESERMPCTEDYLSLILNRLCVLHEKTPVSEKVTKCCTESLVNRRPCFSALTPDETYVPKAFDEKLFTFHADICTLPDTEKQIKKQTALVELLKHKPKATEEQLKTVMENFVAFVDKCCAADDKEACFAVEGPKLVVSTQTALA

CC(=O)c1cccc(NC(=O)C(OC(=O)c2cccc(S(=O)(=O)N(C)c3ccccc3)c2)c2ccccc2)c1 (stereo not drawn)
IC50 [1]: > 94.1 µM (inactive)

FC(F)(F)c1cc(Cl)c2nc(-c3ccccc3)cn2c1
EC50 [2]: > 67.5 µM (inactive)
IC50 [3]: > 100 µM (inactive)

CCc1cc(C(=O)Nc2ncccc2O)sc1C
EC50 [2]: > 67.5 µM (inactive)
AC50 [4]: 4.64 µM (active)

Cc1n[nH]c(C(F)(F)F)c1N=NN1CCOCC1
CC50 [5]: 6.78 µM (active)
IC50 [6]: 15.5 µM (inactive)

O=C1ON(Cc2ccccc2)C(c2ccccc2)N1c1ccccc1 (stereo not drawn)
GI50 [7]: 7.45 µM (inactive)
GI50 [8]: 54 µM (inactive)
GI50 [9]: > 100 µM (inactive)

CC(C)CNc1ncnc2c1ncn2[C@H]1CN(Cc2ccc(-c3ccccc3)cc2)C[C@@H](CO)O1
IC50 [6]: 9.84 µM (active)

COC1=C(C)C(=O)C2=C(C1=O)C1C3CC4=C(C(=O)C(OC)=C(C)C4=O)C(CNC(=O)C(C)O)N3C(C#N)C(C2)N1C (stereo not drawn)
GI50 [7]: < 0.01 µM (active)
GI50 [8]: 0.203 µM (active)
GI50 [9]: < 0.01 µM (active)

C/C=C/c1ccc([C@@H]2[C@@H](CO)N(C(=O)Cc3cccnc3)[C@H]2CNC(C)=O)cc1
AC50 [10]: 28.6 µM (active)

C[C@@H]1CN([C@@H](C)CO)C(=O)c2cccc(NC(=O)Nc3ccc(C(F)(F)F)cc3)c2O[C@H]1CN(C)Cc1ccc(Cl)c(Cl)c1
AC50 [11]: 0.919 µM (active)

C[C@H]1CN([C@@H](C)CO)C(=O)c2cc(C#CC3CCCC3)cnc2O[C@H]1CN(C)C(=O)Cc1ccccn1
AC50 [10]: 21.3 µM (active)

C[C@@H]1CN([C@H](C)CO)C(=O)Cc2cc(NC(=O)Cc3cn(C)c4ccccc34)ccc2O[C@@H]1CN(C)Cc1ccc(Cl)c(Cl)c1
AC50 [11]: 5.18 µM (active)

C[C@H](CO)N1C[C@H](C)[C@H](CN(C)CC2CCCCC2)Oc2ccc(NC(=O)Nc3ccc(C(F)(F)F)cc3)cc2CC1=O
AC50 [11]: 2.72 µM (active)

COc1ccc(CN(C)C[C@@H]2OCCCC[C@H](C)Oc3ccc(NC(=O)Nc4cccc5ccccc45)cc3C(=O)N([C@H](C)CO)C[C@H]2C)cc1
AC50 [12]: 69.6 µM (active)
AC50 [13]: > 70 µM (inactive)

COc1ccccc1/C=N\N=C(\N)c1ccccn1
EC50 [2]: > 67.6 µM (inactive)

O=C(N/N=C/c1cc([N+](=O)[O-])ccc1O)/C(=C\c1cccs1)NC(=O)c1ccccc1
EC50 [14]: 0.76 µM (active)
IC50 [15]: 15.2 µM (active)
IC50 [1]: > 94.1 µM (inactive)
IC50 [16]: 13.8 µM (active)
EC50 [17]: > 160 µM (inactive)
EC50 [18]: 3.32 µM (active)
EC50 [19]: 2.16 µM (active)

Oc1ccc(/N=C/c2sc3ccccc3c2Cl)cc1
EC50 [20]: > 380 µM (inactive)
AC50 [21]: 137 µM (active)
IC50 [22]: > 128 µM (inactive)

COc1ccc(C#Cc2ccc([C@H]3[C@@H](CO)N4CCCCN(C(=O)Nc5ccccc5F)C[C@@H]34)cc2)cc1
AC50 [23]: 5.66 µM (active)
